Laboratory results reported in patent US20250144085A1, “PHARMACEUTICAL COMPOSITION FOR PREVENTING OR TREATING CANCER COMPRISING OMEPRAZOLE BROWNING MATTER” (NEW CANCER CURE BIO CO., LTD, priority 2021, published 2025).

Tested on: pancreatic cancer (MIA PaCa2) cell line
Experiment: sulforhodamine B colorimetric assay (SRB assay) of cancer cell death
Format: cell-based
Conditions: 48 hours; for Cancer cell killing rate (%) by treatment with omeprazole (KN510) degradation substance: 0.1%; for Cancer cell growth rate following treatment with omeprazole (KN510) degradation substance, average(%): treated at a concentration of 0.1%
Experimental: In order to confirm the anticancer activity of the omeprazole (KN510) degradation substances (acid degradation substances) and base degradation substances prepared in Example 1 above, the cancer cell killing effect of each of the omeprazole (KN510) degradation substances was determined. The extent of cancer cell death was measured by sulforhodamine B colorimetric assay (SRB assay), which was performed as follows: A pancreatic cancer (MIA PaCa2) cell line (100 μ ? ) was inoculated into 96-well cell culture plates at a density ranging from 7,500 to 10,000 cells/well depending on the doubling time. Each of the omeprazole (KN510) degradation substances prepared in Example 1 above was treated at a concentration of 0.1% and incubated in a CO2 incubator for 48 hours, after which the assay was terminated by adding cold TCA. Cells were fixed intact by gently adding 50 μl of cold 50% (w/v) TCA (final concentration: 10% TCA) and incubated at 4° C. for 60 min. The supernatant was discarded, and the plate was washed five times with distilled water and then air dried. A solution (100 μl) of 0.4% (w/v) sulforhodamine B in 1% acetic acid was added to each well, and the plate was left at room temperature for 10 min. After staining, unbound dye was removed by washing five times with 1% acetic acid, and the plate was air-dried. The bound dye was then solubilized with 10 mM trizma base, and the absorbance was recorded at 515 nm using an automated plate reader. All experiments were performed in triplicate, and data were expressed as mean±standard deviation values.

Q: `COc1ccc2[nH]c([S+]([O-])Cc3ncc(C)c(OC)c3C)nc2c1` (centres unmarked) [omeprazole (KN510), omeprazole] was tested. Which “Cancer cell killing rate (%) by treatment with omeprazole (KN510) degradation substance” value (“Cancer cell killing rate (%)” below) (compared to the control group using the values in Table 1) did it give?
A: about 32%

Q: What about the “Cancer cell killing rate (%)” value (compared to the control group using the values in Table 1, listed as KN510 + 1M HCl 0 μl) of the same compound?
A: 31.85%

Q: What about the “Cancer cell killing rate (%)” value (compared to the control group using the values in Table 1, listed as KN510 + 1M NaOH 0 μl) of the same compound?
A: 32.82%

Q: And the “Cancer cell growth rate following treatment with omeprazole (KN510) degradation substance, average(%)” value (control = 100.00, listed as KN510 + 1M HCl 0 μl)?
A: 68.15%

Q: What about the “Cancer cell growth rate following treatment with omeprazole (KN510) degradation substance, average(%)” value (control = 100.00, listed as KN510 + 1M NaOH 0 μl) of the same compound?
A: 67.18%
